The record followed here is patent US10472341B2, “Bicyclic tetrahydrothiazepine derivatives useful for the treatment of neoplastic and/or infectious diseases” (APEIRON BIOLOGICS AG, priority 2015, dated 2019).

Where two headings read alike, the source gives them in different places.

The subject of test [1] is aCD3/aCD28-stimulated human PBMCs. In words: Cytokine production in aCD3/aCD28 stimulated human PBMCs. It counts as cell-based. The following applies: PBMC, 18 h. The procedure, abridged: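 Ficoll-isolated human PBMCs at 1e6 cells/mL in X-Vivo15, stimulated with soluble anti-CD3/CD28 (OKT3 and 28.2, 1 μg/mL each) plus compound for 18 h at 37° C. Supernatant cytokines quantified by MSD or HTRF.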

The subject of test [2] is aCD3/aCD28-stimulated human CD4+-T-cells. Description: IL-2 production and activation markers in aCD3/aCD28 stimulated isolated human CD4+-T-cells. The following applies: IL-2 production at 3 μM compound. It counts as cell-based. The procedure, abridged: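 CD4+ T cells isolated from buffy-coat PBMCs by microbeads were plated in Xvivo medium (1.5*10^5 cells/well) and stimulated with anti-CD3/28 mAbs plus compound. IL-2 measured by ELISA in supernatants at 24 h or 48 h; CD25 and proliferation by flow cytometry, CD69 at 24 h. Activity classes based on IL-2 at 3 μM compound.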

The mark [3] stands for this setting: enhancement of IFN-γ production, read-out: Activity Class IFN-γ.
[4] abbreviates: enhancement of IL-2 production, read-out: Activity Class IL-2.

Turning to `CC(C)NC(=O)c1ccc2c(c1)N(Cc1ccc(Cl)cc1)C(=O)[C@@H](N)CS2(=O)=O.Cl` [Example 79, (3R)-3-amino-5-[(4-chlorophenyl)methyl]-1,1,4-trioxo-N-(propan-2-yl)-2,3,4,5-tetrahydro-1λ^6,5-benzothiazepine-7-carboxamide hydrochloride], the EC50 was 1580 to 5010 nM in test [1] (setting [3]) and above 5010 nM in test [1] (setting [4]). The “Activity Class CD4+” value in test [2] is reported as “B (IL-2 production at 3 μM compound concentration between 2-10 ng/mL)”.
For `Cl.N[C@H]1CS(=O)(=O)c2ccc(C(=O)NCCCC(F)(F)F)cc2N(Cc2ccc(Cl)cc2)C1=O` [Example 80, (3R)-3-amino-5-[(4-chlorophenyl)methyl]-1,1,4-trioxo-N-(4,4,4-trifluorobutyl)-2,3,4,5-tetrahydro-1λ^6,5-benzothiazepine-7-carboxamide hydrochloride], in that order: below 1580 nM, below 1580 nM and “A (IL-2 production at 3 μM compound concentration >10 ng/mL)”.
For `CC(C)C(C)NC(=O)c1ccc2c(c1)N(Cc1ccc(Cl)cc1)C(=O)[C@@H](N)CS2(=O)=O.Cl` (stereo partly drawn) [Example 83, (3R)-3-amino-5-[(4-chlorophenyl)methyl]-N-(3-methylbutan-2-yl)-1,1,4-trioxo-2,3,4,5-tetrahydro-1λ^6,5-benzothiazepine-7-carboxamide hydrochloride], in that order: below 1580 nM, above 5010 nM and “B (IL-2 production at 3 μM compound concentration between 2-10 ng/mL)”.
In the case of `C=CCCNC(=O)c1ccc2c(c1)N(Cc1ccc(Cl)cc1)C(=O)[C@@H](N)CS2(=O)=O.Cl` [Example 84, (3R)-3-amino-N-(but-3-en-1-yl)-5-[(4-chlorophenyl)methyl]-1,1,4-trioxo-2,3,4,5-tetrahydro-1λ^6,5-benzothiazepine-7-carboxamide hydrochloride], the EC50 in test [1] (setting [3]) is below 1580 nM; in test [1] (setting [4]), 1580 to 5010 nM. In test [2], the “Activity Class CD4+” value is reported as “B (IL-2 production at 3 μM compound concentration between 2-10 ng/mL)”.
In the case of `Cl.N[C@H]1CS(=O)(=O)c2cc(F)c(C(=O)NC3CC3)cc2N(Cc2ccc(Cl)cc2)C1=O` [Example 85, (3R)-3-amino-5-[(4-chlorophenyl)methyl]-N-cyclopropyl-8-fluoro-1,1,4-trioxo-2,3,4,5-tetrahydro-1λ^6,5-benzothiazepine-7-carboxamide hydrochloride], the EC50 in test [1] (setting [3]) and in test [1] (setting [4]) was 1580 to 5010 nM in each case. The “Activity Class CD4+” value in test [2] was “C (IL-2 production at 3 μM compound concentration between 2-fold increase as compared to mean IL-2 production of stimulated cells in the absence of compounds and <2 ng/mL)”.
As for `Cl.N[C@H]1CS(=O)(=O)c2cc(F)c(C(=O)NC3CCC3)cc2N(Cc2ccc(Cl)cc2)C1=O` [Example 86, (3R)-3-amino-5-[(4-chlorophenyl)methyl]-N-cyclobutyl-8-fluoro-1,1,4-trioxo-2,3,4,5-tetrahydro-1λ^6,5-benzothiazepine-7-carboxamide hydrochloride], the EC50 in test [1] (setting [3]) was below 1580 nM; in test [1] (setting [4]) it was 1580 to 5010 nM. The “Activity Class CD4+” value in test [2] was “B (IL-2 production at 3 μM compound concentration between 2-10 ng/mL)”.
As for `CC(C)NC(=O)c1cc2c(cc1F)S(=O)(=O)C[C@H](N)C(=O)N2Cc1ccc(Cl)cc1F.Cl` [Example 87, (3R)-3-amino-5-[(4-chloro-2-fluorophenyl)methyl]-8-fluoro-1,1,4-trioxo-N-(propan-2-yl)-2,3,4,5-tetrahydro-1λ^6,5-benzothiazepine-7-carboxamide hydrochloride], the EC50 in test [1] (setting [3]) and in test [1] (setting [4]) was above 5010 nM each time. Further, the “Activity Class CD4+” value in test [2] is “C (IL-2 production at 3 μM compound concentration between 2-fold increase as compared to mean IL-2 production of stimulated cells in the absence of compounds and <2 ng/mL)”.
